Results: patent publication US20220112187A1, “PYRAZOLOPYRIDINE AMINE COMPOUNDS FOR THE TREATMENT OF AUTOIMMUNE DISEASE” (Hoffmann-La Roche Inc., priority 2018, published 2022)

Each molecule was assayed against T1, human TLR7 (Homo sapiens, UniProt Q9NYK1) (assay: HEK293-Blue-hTLR-7 cells assay (SEAP reporter, R848 stimulation)). Settings: HEK293-Blue-hTLR7 cells, R848 ligand, 20 hrs incubation.
T1 sequence (Q9NYK1 27-1049): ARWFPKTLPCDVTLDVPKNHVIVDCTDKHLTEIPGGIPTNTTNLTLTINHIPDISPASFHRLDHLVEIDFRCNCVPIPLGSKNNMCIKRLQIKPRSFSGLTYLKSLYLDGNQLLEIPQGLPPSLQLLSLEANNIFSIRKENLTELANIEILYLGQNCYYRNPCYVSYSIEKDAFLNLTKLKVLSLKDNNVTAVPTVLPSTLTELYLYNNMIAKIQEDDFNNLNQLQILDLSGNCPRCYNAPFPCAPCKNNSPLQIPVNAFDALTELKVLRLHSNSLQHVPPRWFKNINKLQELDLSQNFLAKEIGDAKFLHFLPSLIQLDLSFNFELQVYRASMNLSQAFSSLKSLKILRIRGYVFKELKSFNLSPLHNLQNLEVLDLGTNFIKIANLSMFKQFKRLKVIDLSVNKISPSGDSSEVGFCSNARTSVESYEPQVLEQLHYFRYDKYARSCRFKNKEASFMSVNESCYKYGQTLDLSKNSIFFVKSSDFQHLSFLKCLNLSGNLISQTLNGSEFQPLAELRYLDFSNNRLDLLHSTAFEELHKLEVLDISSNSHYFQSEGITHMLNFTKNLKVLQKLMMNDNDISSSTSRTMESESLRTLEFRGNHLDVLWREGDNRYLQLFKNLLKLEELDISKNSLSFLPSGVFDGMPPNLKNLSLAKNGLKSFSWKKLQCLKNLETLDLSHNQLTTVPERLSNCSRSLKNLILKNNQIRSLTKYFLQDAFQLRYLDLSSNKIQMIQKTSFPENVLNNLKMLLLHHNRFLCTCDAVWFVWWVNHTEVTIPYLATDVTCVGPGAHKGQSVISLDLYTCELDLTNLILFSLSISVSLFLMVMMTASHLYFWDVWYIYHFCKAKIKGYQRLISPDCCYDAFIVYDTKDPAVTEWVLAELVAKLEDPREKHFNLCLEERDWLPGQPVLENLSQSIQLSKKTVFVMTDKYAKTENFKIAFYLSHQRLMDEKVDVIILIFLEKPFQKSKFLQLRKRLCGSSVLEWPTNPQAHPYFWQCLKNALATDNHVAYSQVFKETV
Assay type: cell-based
Description: A stable HEK293-Blue-hTLR-7 cell line was purchased from InvivoGen (Cat. #: hkb-htlr7, San Diego, Calif., USA). These cells were originally designed for studying the stimulation of human TLR7 by monitoring the activation of NF-κB. A SEAP (secreted embryonic alkaline phosphatase) reporter gene was placed under the control of the IFN-β minimal promoter fused to five NF-κB and AP-1-binding sites. The SEAP was induced by activating NF-κB and AP-1 via stimulating HEK-Blue hTLR7 cells with TLR7 ligands. Therefore the reporter expression was declined by TLR7 antagonist under the stimulation of a ligand, such as R848 (Resiquimod), for incubation of 20 hrs. The cell culture supernatant SEAP reporter activity was determined using QUANTI-Blue™ kit (Cat. #: rep-qb1, Invivogen, San Diego, Ca, USA) at a wavelength of 640 nm, a detection medium that turns purple or blue in the presence of alkaline phosphatase.
HEK293-Blue-hTLR7 cells were incubated at a density of 250,000˜450,000 cells/mL in a volume of 170 μL in a 96-well plate in Dulbecco's Modified Eagle's medium (DMEM) containing 4.5 g/L glucose, 50 U/mL penicillin, […], […], 2 mM L-glutamine, 10% (v/v) heat-inactivated fetal bovine serum with addition of 20 μL test compound in a serial dilution in the presence of final DMSO at 1% and 10 μL of 20 uM R848 in above DMEM, perform incubation under 37° C. in a CO2 incubator for 20 hrs. Then 20 μL of the supernatant from each well was incubated with 180 μL Quanti-blue substrate solution at 37° C. for 2 hrs and the absorbance was read at 620˜655 nm using a spectrophotometer. The signalling pathway that TLR7 activation leads to downstream NF-κB activation has been widely accepted, and therefore similar reporter assay was modified for evaluating TLR7 antagonist.

Row | IC50 [nM] | Structure (SMILES)
1 | 190 | C[C@@H]1CN(c2ccc(C#N)n3nccc23)C[C@H](CN2CCC(N3CCCC3)CC2)O1 [Example 54, 4-[(2R,6S)-2-methyl-6-[(4-pyrrolidin-1-yl-1-piperidyl)methyl]morpholin-4-yl]pyrazolo[1,5-a]pyridine-7-carbonitrile]
2 | 240 | C[C@@H]1CN(c2ccc(C#N)n3nccc23)C[C@H](CN2CCC3(CCNCC3)CC2)O1 [Example 3, 4-[(2S,6R)-2-(3,9-diazaspiro[5.5]undecan-3-ylmethyl)-6-methyl-morpholin-4-yl]pyrazolo[1,5-a]pyridine-7-carbonitrile]
3 | 95 | C[C@@H]1CN(c2ccc(C#N)n3nccc23)C[C@H](CN2CCC(N3CCN(C)CC3)CC2)O1 [Example 1, 4-[(2R,6S)-2-methyl-6-[[4-(4-methylpiperazin-1-yl)-1-piperidyl]methyl]morpholin-4-yl]pyrazolo[1,5-a]pyridine-7-carbonitrile]
4 | 150 | C[C@@H]1CN(c2ccc(C#N)n3nccc23)C[C@H](CN2CCC(N)(c3ccccc3)CC2)O1 [Example 73, 4-[(2S,6R)-2-[(4-amino-4-phenyl-1-piperidyl)methyl]-6-methyl-morpholin-4-yl]pyrazolo[1,5-a]pyridine-7-carbonitrile]
5 | 160 | C[C@@H]1CN(c2ccc(C#N)n3nccc23)C[C@H](CN2CCN(C3CCNCC3)CC2Cc2ccccc2)O1 (stereo partly drawn) [Example 77, 4-[(2S,6R)-2-[[2-benzyl-4-(4-piperidyl)piperazin-1-yl]methyl]-6-methyl-morpholin-4-yl]pyrazolo[1,5-a]pyridine-7-carbonitrile]
6 | 240 | C[C@@H]1CN(c2ccc(C#N)n3nccc23)C[C@H](CN2CCC(CN)CC2)O1 [Example 12, 4-[(2S,6R)-2-[[4-(aminomethyl)-1-piperidyl]methyl]-6-methyl-morpholin-4-yl]pyrazolo[1,5-a]pyridine-7-carbonitrile]
7 | 460 | C[C@@H]1CN(c2ccc(C#N)n3nccc23)C[C@H](CN2CCCC3CNCC32)O1 (stereo partly drawn) [Example 61, 4-[(2S,6R)-2-(2,3,4,4a,5,6,7,7a-octahydropyrrolo[3,4-b]pyridin-1-ylmethyl)-6-methyl-morpholin-4-yl]pyrazolo[1,5-a]pyridine-7-carbonitrile]
8 | 270 | C[C@@H]1CN(c2ccc(C#N)n3nccc23)C[C@H](CN2CCC[C@@H]3NCCC32)O1 (stereo partly drawn) [Example 63, 4-[(2R,6S)-2-methyl-6-[[cis-(3aS,7aS)-1,2,3,3a,5,6,7,7a-octahydropyrrolo[3,2-b]pyridin-4-yl]methyl]morpholin-4-yl]pyrazolo[1,5-a]pyridine-7-carbonitrile]
9 | 180 | C[C@@H]1CN(c2ccc(C#N)n3nccc23)C[C@H](CN2CC3CCNCC3C2)O1 (stereo partly drawn) [Example 49, 4-[(2S,6R)-2-(1,3,3a,4,5,6,7,7a-octahydropyrrolo[3,4-c]pyridin-2-ylmethyl)-6-methyl-morpholin-4-yl]pyrazolo[1,5-a]pyridine-7-carbonitrile]
10 | 600 | C[C@@H]1CN(c2ccc(C#N)n3nccc23)C[C@H](CN2CC3(CCCNCC3)C2)O1 [Example 46, 4-[(2S,6R)-2-(2,8-diazaspiro[3.6]decan-2-ylmethyl)-6-methyl-morpholin-4-yl]pyrazolo[1,5-a]pyridine-7-carbonitrile]

Continued, molecule first:

Row | Structure (SMILES) | IC50 [nM]
11 | CC1CC(N)CCN1C[C@H]1CN(c2ccc(C#N)n3nccc23)C[C@@H](C)O1 (stereo partly drawn) [Example 51, 4-[(2S,6R)-2-[(4-amino-2-methyl-1-piperidyl)methyl]-6-methyl-morpholin-4-yl]pyrazolo[1,5-a]pyridine-7-carbonitrile] | 390
12 | C[C@@H]1CN(c2ccc(C#N)n3nccc23)C[C@H](CN2CC[C@H](N)[C@H](C)C2)O1 [Example 74, 4-[(2S,6R)-2-[[(3R,4S)-4-amino-3-methyl-1-piperidyl]methyl]-6-methyl-morpholin-4-yl]pyrazolo[1,5-a]pyridine-7-carbonitrile] | 89
13 | C[C@@H]1CN(c2ccc(C#N)n3nccc23)C[C@H](CN2CCC3(CCNC3)CC2)O1 [Example 19, 4-[(2S,6R)-2-(2,8-diazaspiro[4.5]decan-8-ylmethyl)-6-methyl-morpholin-4-yl]pyrazolo[1,5-a]pyridine-7-carbonitrile] | 130
14 | C[C@@H]1CN(c2ccc(C#N)n3nccc23)C[C@H](CN2CCC(N)C(F)(F)C2)O1 (stereo partly drawn) [Example 34, 4-[(2S,6R)-2-[(4-amino-3,3-difluoro-1-piperidyl)methyl]-6-methyl-morpholin-4-yl]pyrazolo[1,5-a]pyridine-7-carbonitrile] | 87
15 | C[C@@H]1CN(c2ccc(C#N)n3nccc23)C[C@H](CNC2CCN(C)CC2)O1 [Example 7, 4-[(2R,6S)-2-methyl-6-[[(1-methyl-4-piperidyl)amino]methyl]morpholin-4-yl]pyrazolo[1,5-a]pyridine-7-carbonitrile] | 260
16 | C[C@@H]1CN(c2ccc(C#N)n3nccc23)C[C@H](CN2CCC3(CCCN3)CC2)O1 [Example 53, 4-[(2S,6R)-2-(1,8-diazaspiro[4.5]decan-8-ylmethyl)-6-methyl-morpholin-4-yl]pyrazolo[1,5-a]pyridine-7-carbonitrile] | 230
17 | C[C@@H]1CN(c2ccc(C#N)n3nccc23)C[C@H](CN2CCNC3(CC3)C2)O1 [Example 40, 4-[(2S,6R)-2-(4,7-diazaspiro[2.5]octan-7-ylmethyl)-6-methyl-morpholin-4-yl]pyrazolo[1,5-a]pyridine-7-carbonitrile] | 95
18 | C[C@@H]1CN(c2ccc(C#N)n3nccc23)C[C@H](CN2C3CCCC2CC(N)C3)O1 (stereo partly drawn) [Example 66, Exo-4-[(2S,6R)-2-[(3-amino-9-azabicyclo[3.3.1]nonan-9-yl)methyl]-6-methyl-morpholin-4-yl]pyrazolo[1,5-a]pyridine-7-carbonitrile] | 490
19 | C[C@@H]1CN(c2ccc(C#N)n3nccc23)C[C@H](CN2C3CCCC2CC(N)C3)O1 (stereo partly drawn) [Example 65, Endo-4-[(2S,6R)-2-[(3-amino-9-azabicyclo[3.3.1]nonan-9-yl)methyl]-6-methyl-morpholin-4-yl]pyrazolo[1,5-a]pyridine-7-carbonitrile] | 460
20 | C[C@@H]1CN(c2ccc(C#N)n3nccc23)C[C@H](CN2CCC3(CC2)CNCCO3)O1 [Example 60, 4-[(2R,6S)-2-methyl-6-(1-oxa-4,9-diazaspiro[5.5]undecan-9-ylmethyl)morpholin-4-yl]pyrazolo[1,5-a]pyridine-7-carbonitrile] | 100
21 | C[C@@H]1CN(c2ccc(C#N)n3nccc23)C[C@H](CN2C3CCC2CC(N)C3)O1 (stereo partly drawn) [Example 37, 4-[(2S,6R)-2-[(3-amino-8-azabicyclo[3.2.1]octan-8-yl)methyl]-6-methyl-morpholin-4-yl]pyrazolo[1,5-a]pyridine-7-carbonitrile] | 190
22 | C[C@@H]1CN(c2ccc(C#N)n3nccc23)C[C@H](CN2C3CCC2CNC3)O1 [Example 43, 4-[(2S,6R)-2-(3,8-diazabicyclo[3.2.1]octan-8-ylmethyl)-6-methyl-morpholin-4-yl]pyrazolo[1,5-a]pyridine-7-carbonitrile] | 59
23 | C[C@@H]1CN(c2ccc(C#N)n3nccc23)C[C@H](CN2CCN(C(=O)CN)CC2)O1 [Example 14, 4-[(2S,6R)-2-[[4-(2-aminoacetyl)piperazin-1-yl]methyl]-6-methyl-morpholin-4-yl]pyrazolo[1,5-a]pyridine-7-carbonitrile] | 460
